The source of these data is patent publication US4656250A, “[Nle^8, Nle^18, Tyr^34 or Phe^34 ]-h-PTH peptide derivatives” (Toyo Jozo Kabushiki Kaisha, priority 1983, dated 1987).

For data set [1] the following is noted: cited from earlier work; for PTH / hormonal activity compared with natural h-PTH: prior art, Jap. Pat. Unexam. Publ. No. 55-113753.
Data set [2] has as its target T1, PTH receptor (Rattus norvegicus, UniProt P25961).
T1 construct: A surface membrane was removed, and the renal cortex carved out and ice-cooled; from tissue; host or cells: rat (SD, male) renal cortex, crude membrane fraction (2200 x g precipitate)
T1 sequence (P25961 27-591): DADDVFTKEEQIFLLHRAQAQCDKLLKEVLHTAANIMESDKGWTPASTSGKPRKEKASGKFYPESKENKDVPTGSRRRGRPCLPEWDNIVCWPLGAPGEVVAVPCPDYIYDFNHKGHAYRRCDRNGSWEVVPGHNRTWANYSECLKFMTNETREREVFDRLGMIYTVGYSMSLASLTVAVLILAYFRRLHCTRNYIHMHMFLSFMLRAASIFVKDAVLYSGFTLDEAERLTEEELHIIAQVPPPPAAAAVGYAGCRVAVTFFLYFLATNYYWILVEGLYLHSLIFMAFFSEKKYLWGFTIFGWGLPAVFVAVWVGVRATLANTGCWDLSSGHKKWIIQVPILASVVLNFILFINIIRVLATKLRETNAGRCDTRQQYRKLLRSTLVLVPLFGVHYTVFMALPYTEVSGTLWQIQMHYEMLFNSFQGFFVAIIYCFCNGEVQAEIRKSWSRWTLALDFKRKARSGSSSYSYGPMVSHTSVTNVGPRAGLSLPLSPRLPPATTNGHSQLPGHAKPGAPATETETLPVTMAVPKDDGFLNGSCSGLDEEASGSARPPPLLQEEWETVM
As to the kind of experiment: Assay of PTH activity: c-AMP generated on reaction with rat renal cortex PTH receptor preparation, parallel line assay against standard bovine PTH(1-34). Type of data set: biochemical. As to conditions: for h-PTH activity, times stronger than known h-PTH(1-34) and [Nle8, Nle18]-h-PTH(1-34): compared with h-PTH(1-34) and [Nle8, Nle18]-h-PTH(1-34); for PTH Activity: unlabelled sample, vs standard bovine PTH(1-34); for PTH Activity / PTH Activity After Labelling with 125I: rat renal cortex PTH receptor, c-AMP generation; for PTH Activity After Labelling with 125I: after labelling with iodine-125 (chloramine T). As for the experimental part:
(1) Preparation of PTH receptor:
Rats, strain SD, male, weight 200-250 g, were decollated to bleed, laparotomized and excised of kidneys. A surface membrane was removed, and the renal cortex carved out and ice-cooled. The following operations should be carried out at a temperature as low as possible (0°-4° C.).
The renal cortex was immersed in a solution (hereinafter designated as solution A) of 10 mM Tris-HCl buffer (pH 7.5) containing 0.25 M sucrose and lmM EDTA. Three times the volume of solution A (ml) suspending the renal cortex (wet weight) was added to a renal cortex in a glass tube with Tefron (trade name) pestle and homogenized.
A homogenate was centrifuged for 10 minutes at 150×g, and the supernatant solution was further centrifuged for 15 mins. at 2200×g. The supernatant solution was discarded and the upper emulsion part of precipitate was suspended in a solution A. The said emulsion was centrifuged for 15 mins. at 2200×g. The precipitate was again suspended and frozen at -70° C. in a bottle stored at -20° C.
(2) Reaction with PTH and PTH-receptor:
Specimen was dissolved in 100 mM Tris-HCl buffer (ph 7.5) containing ATP-Mg 2 mM, MgCl2 10 mM, KCl 60 mM, GTP 20 μM, isobutyl methyl xanthine 1 mM, creatine phosphate 8 mM and bovine serum albumin (BSA) 0.2% to prepare 2 μg/ml and 10 μg/ml solutions. Standard bovine PTH(1-34) solution was also prepared in the same manner.
The above solutions [2 μg/ml and 10 μg/ml specimen] and bovine PTH(1-34) (50 μl) were each divided among eight glass test tubes, and kept in ice water in order to prevent ATP […] and to prepare test solutions. A stock solution of PTH receptor stored at -20° C. was thawed to room temperature. Creatine kinase, previously dissolved in solution A, was added thereto to prepare creatine kinase at 0.1 mg/ml and PTH receptor at 1.4 mg/ml as protein by adding solution A while keeping the solution in ice cooling. After the above test solutions were preincubated at 37° C. for several minutes, the PTH receptor-creatine kinase solution (each 50 μl) was added therein and incubated at 37° C. for 10 mins. 0.1 M acetate buffer (pH 4.0, 100 μl) was added, the mixture immediately placed in ice-water, and the tube heated in boiling water for one minute to stop the reaction.
(3) Assay of generated c-AMP:
Distilled water was added to the above reaction-stopped solution to 10-30 times dilution, and deproteinized by centrifugation for 15 mins. at 2000×g. An amount of c-AMP in a supernatant solution was assayed by RIA-kit (YASAMA SHOYU CO.)
(4) Determination of PTH activity:
The measured values of c-AMP hereinabove were converted to a unit of pM (pico mole)/mg PTH receptor-protein/minute as a designation of measured value. The measured value of the specimen was compared to the standard substance according to a parallel assay line two by two.

Data set [3] relates to PTH receptors. Put plainly: Affinity for PTH receptors (statement, no method given). As to conditions: in words. In kind it is binding.

For [Nle^8, Nle^18 ]-h-PTH(1-34), the “PTH / hormonal activity compared with natural h-PTH” value in data set [1] is listed as “approximately equal to but no more than that of natural h-PTH”.

With [Nle^8, Nle^18, Phe^34 ]-h-PTH(1-34)NH2, in data set [2], the “h-PTH activity, times stronger than known h-PTH(1-34) and [Nle8, Nle18]-h-PTH(1-34)” value was 1.5-2 times; the “PTH Activity” value was found to be 5000 U/mg. Moreover, the “affinity for PTH receptors compared with known h-PTH(1-34) and [Nle8, Nle18]-h-PTH(1-34)” value in data set [3] is “stronger affinity”.

As to [Nle^8, Nle^18, Tyr^34 ]-h-PTH(1-34), in data set [2], the “PTH Activity After Labelling with 125I” value was found to be 2480 U/mg and the “PTH Activity” value turned out to be 2930 U/mg. In addition, the “PTH / hormonal activity compared with natural h-PTH” value in data set [1] is on record as “only approximately equal to that of natural h-PTH(1-34)”.

On to [Nle^8, Nle^18, Tyr^34 ]-h-PTH(1-34)NH2, for which the “PTH activity after labelling (in words)” value in data set [2] (after labelling with iodine-125) is recorded as “retains its PTH activity after labelling”. In data set [2], the “PTH Activity After Labelling with 125I” value was found to be 5000 U/mg; the “h-PTH activity, times stronger than known h-PTH(1-34) and [Nle8, Nle18]-h-PTH(1-34)” value is recorded as 1.5-2 times; the “PTH Activity” value turned out to be 5030 U/mg. Further, the “biological activity in long term storage” value in data set [2] (labelled peptide, long term storage) is on record as “retains its biological activity in long term storage”. The “affinity for PTH receptors compared with known h-PTH(1-34) and [Nle8, Nle18]-h-PTH(1-34)” value in data set [3] was “stronger affinity”.

Regarding “h-PTH(1-34) (SVSEIQLMHNLGKHLNSMERVEWLRKKLQDVHNF; Parathyroid hormone; UniProt P01270 32-65, looked up, fragment) [34-amino acid N-terminal fragment of human parathyroid hormone]”, the “hormonal activity when labelled with iodine-125” value in data set [1] (methionine at position-8 and -18 is oxidized) is on record as “loses hormonal activity”.

h-PTH(1-34)NH2: in data set [2], the “PTH Activity After Labelling with 125I” value is above 150 U/mg and the “PTH Activity” value stood at 5100 U/mg.

As to “h-PTH: sample of the activity table; human parathyroid hormone, probably the h-PTH(1-34) fragment labelled in b29”, in data set [2], the “PTH Activity After Labelling with 125I” value is on record as above 100 U/mg and the “PTH Activity” value is recorded as 3000 U/mg.
